Publication PMC10944509, “Structural and mechanistic insights into activation of the human RNA ligase RTCB by Archease” (Nature Communications, 2024)

Legend:
[1] = target: T1, human RTCB-Archease complex (Homo sapiens, UniProt Q8IWT0+Q9Y3I0); experiment: X-ray crystal structure, […] Å; format: binding; settings: covalent; phosphoramidate with RTCB H428, formed from GTP in co-crystallization; Mn2+ (sites A, C); 291 K
T1 construct: full-length RTCB from Sf21 insect cells (His6 tag, TEV-cleaved optionally) with Archease isoform 1 from E. coli (N-terminal His6, thrombin site, tag removal optional); 1:1 complex
T1 sequence (Q9Y3I0 1-505): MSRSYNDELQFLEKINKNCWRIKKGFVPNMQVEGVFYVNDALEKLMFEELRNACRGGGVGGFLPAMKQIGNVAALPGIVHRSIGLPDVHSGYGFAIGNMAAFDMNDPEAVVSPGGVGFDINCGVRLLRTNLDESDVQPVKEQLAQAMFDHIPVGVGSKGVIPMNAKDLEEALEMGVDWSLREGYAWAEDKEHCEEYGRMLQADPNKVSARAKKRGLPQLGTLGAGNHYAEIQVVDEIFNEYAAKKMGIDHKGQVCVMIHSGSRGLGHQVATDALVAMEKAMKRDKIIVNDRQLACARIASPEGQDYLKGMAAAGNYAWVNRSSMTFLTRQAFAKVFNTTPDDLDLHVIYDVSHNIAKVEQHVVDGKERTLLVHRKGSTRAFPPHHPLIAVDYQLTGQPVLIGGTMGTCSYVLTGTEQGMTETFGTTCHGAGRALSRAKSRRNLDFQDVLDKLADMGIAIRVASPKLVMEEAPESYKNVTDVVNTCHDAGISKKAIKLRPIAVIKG
T1 sequence (Q8IWT0 1-167): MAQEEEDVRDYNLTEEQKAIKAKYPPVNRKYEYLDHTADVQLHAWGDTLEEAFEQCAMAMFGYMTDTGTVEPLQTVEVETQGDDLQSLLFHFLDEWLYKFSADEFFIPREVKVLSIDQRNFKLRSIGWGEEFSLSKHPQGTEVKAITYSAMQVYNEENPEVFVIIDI

[2] = target: T1, human RTCB-Archease complex; experiment: X-ray crystal structure, […] Å; format: binding; settings: Mn2+ (sites A, B, C); RTCB active site, gamma-phosphate coordinated by Archease-bound Mn2+; non-hydrolyzable GTP analog; 291 K
human RTCB (human) = human RTCB (human) (UniProt Q9Y3I0)
[3] = target: T1, human RTCB-Archease complex; experiment: radioactive guanylylation assay, gel autoradiography; format: biochemical; settings: covalent; labelled compound (alpha-32P-GTP 80 nM); RTCB 1 µM, Archease 1 µM, 0.5 mM MnCl2, pH 7.5, 30 °C

Nc1nc2c(ncn2[C@@H]2O[C@H](COP(=O)(O)O)[C@@H](O)[C@H]2O)c(=O)[nH]1 [GMP]
X-ray crystal structure, 2.2 Å [1]: GTP reacted with the active site histidine H428 to form the guanylylated RTCB-H428-GMP intermediate

Nc1nc2c(ncn2[C@@H]2O[C@H](COP(=O)(O)CP(=O)(O)OP(=O)(O)O)[C@@H](O)[C@H]2O)c(=O)[nH]1 [GMPCPP, guanosine-5’-[(α,β)-methyleno]triphosphate]
X-ray crystal structure, 2.3 Å [2]: RTCB-Archease complex with a well-resolved GMPCPP molecule in the active site of RTCB

human Archease (isoform 1) (from UniProt Q8IWT0 1-167) (natural protein)
apparent rate constant of XBP1 intron circularization by RTCB (250 nM) with 1 uM Archease, GTP and Mn2+; no ligated product without Archease (human RTCB (human)): 0.015 min⁻¹

Nc1nc2c(ncn2[C@@H]2O[C@H](COP(=O)(O)OP(=O)(O)OP(=O)(O)O)[C@@H](O)[C@H]2O)c(=O)[nH]1 [GTP]
radioactive guanylylation assay, gel autoradiography [3]: We detected the formation of guanylylated RTCB only in the presence of Archease
